Measurements taken from patent publication US20120121691A1, “Method for Increasing the Production of a Specific ACYL-Chain Dihydroceramide(s) for Improving the Effectiveness of Cancer Treatments” (priority 2010, published 2012).

Columns and labels:
CCRF-CEM cells = test: DIMSCAN cytotoxicity assay, CCRF-CEM; type: cell-based; details: 48 hours
From the text: Cell culture. The pre-T acute lymphoblastic leukemia cell lines MOLT-4 and CCRF-CEM, small cell lung cancer cell line NCI-H146, non-small cell lung cancer cell line NCI-H1792, colon cancer cell lines LoVo and HT-29, and breast cancer cell line MCF-7, were purchased from American Type Culture Collection, Manassas, Va., and grown at 20%/5% and 5%/5%, respectively. COG-LL-317 and COG-LL-332 pre-T acute lymphoblastic leukemia cell lines were obtained from the TTUHSC Cancer Center Cell Repository and grown at 5%/5%. Cell line identities were verified by short tandem repeat analysis and mycoplasma testing was performed. Cell lines were maintained in RPMI-1640 medium supplemented with 10% fetal bovine serum (FBS, Invitrogen) in humidified, 37° C. incubators. […]
Cytotoxicity Assay. Cytoxicity is determined using the DIMSCAN assay system (R. Proffitt et al., Cytometry 24, 204-213 (1996); T. Frgala et al., Proc. AACR, 36, 303 (1995). The system employs digital imaging microscopy to quantify viable cells, which selectively accumulate fluorescein diacetate to become brightly fluorescent. The system is capable of measuring cytotoxicity over a 4-5 log dynamic range by quenching the residual fluorescence of dead and dying cells with eosin Y and quantifying the total fluorescence of viable cells using digital thresholding. Measured fluorescence is directly proportionate to the number of viable cells. […]

[1] = tested on: MCF-7 breast cancer cells; test: DIMSCAN cytotoxicity assay, MCF-7; type: cell-based; details: MCF-7, fatty acid 5 micromolar
From the text: (§1) Cell culture. The pre-T acute lymphoblastic leukemia cell lines MOLT-4 and CCRF-CEM, small cell lung cancer cell line NCI-H146, non-small cell lung cancer cell line NCI-H1792, colon cancer cell lines LoVo and HT-29, and breast cancer cell line MCF-7, were purchased from American Type Culture Collection, Manassas, Va., and grown at 20%/5% and 5%/5%, respectively. COG-LL-317 and COG-LL-332 pre-T acute lymphoblastic leukemia cell lines were obtained from the TTUHSC Cancer Center Cell Repository and grown at 5%/5%. Cell line identities were verified by short tandem repeat analysis and mycoplasma testing was performed. Cell lines were maintained in RPMI-1640 medium supplemented with 10% fetal bovine serum (FBS, Invitrogen) in humidified, 37° C. incubators. For all experiments, ALL cell lines were seeded at […] in RPMI-1640 medium supplemented with 15% fetal bovine serum. Solid tumor cell lines were plated at 5×cells/mL in RPMI-1640 medium supplemented with 10% fetal bovine serum.
(§2) Cytotoxicity Assay. Cytoxicity is determined using the DIMSCAN assay system (R. Proffitt et al., Cytometry 24, 204-213 (1996); T. Frgala et al., Proc. AACR, 36, 303 (1995). The system employs digital imaging microscopy to quantify viable cells, which selectively accumulate fluorescein diacetate to become brightly fluorescent. The system is capable of measuring cytotoxicity over a 4-5 log dynamic range by quenching the residual fluorescence of dead and dying cells with eosin Y and quantifying the total fluorescence of viable cells using digital thresholding. Measured fluorescence is directly proportionate to the number of viable cells. A comparison of the total fluorescence of a drug-treated cell population to the fluorescence of a similar number of untreated cells yields a survival fraction.
(§3) In brief, 5,000 to 25,000 cells/well depending on the cell line (5,000 for solid tumor, 25,000 for ALL cell lines) were replicate plated into 60 wells of a 96-well tissue culture plate in 0.1 cc media and allowed to attach or recover overnight. […]

reactive oxygen species = test: Reactive oxygen species generation; type: cell-based, human; details: C22:0-fatty acid with sphinganine plus GT-11
[2] = tested on: NCI-H146 small cell lung cancer cells; test: DIMSCAN cytotoxicity assay, NCI-H146; type: cell-based, human; details: NCI-H146, fatty acid 5 micromolar
From the text: as §1
(§4) Cytotoxicity Assay. Cytoxicity is determined using the DIMSCAN assay system (R. Proffitt et al., Cytometry 24, 204-213 (1996); T. Frgala et al., Proc. AACR, 36, 303 (1995). The system employs digital imaging microscopy to quantify viable cells, which selectively accumulate fluorescein diacetate to become brightly fluorescent. The system is capable of measuring cytotoxicity over a 4-5 log dynamic range by quenching the residual fluorescence of dead and dying cells with eosin Y and quantifying the total fluorescence of viable cells using digital thresholding. Measured fluorescence is directly proportionate to the number of viable cells.
(§5) In brief, 5,000 to 25,000 cells/well depending on the cell line (5,000 for solid tumor, 25,000 for ALL cell lines) were replicate plated into 60 wells of a 96-well tissue culture plate in 0.1 cc media and allowed to attach or recover overnight. Drug(s) are then added in 0.05 cc media to the final concentrations indicated. […] Total fluorescence of viable cells is then measured by digital imaging microscopy and the signal normalized to control cells. […]

[3] = tested on: NCI-H1792 non-small cell lung cancer cells; test: DIMSCAN cytotoxicity assay, NCI-H1792; type: cell-based; details: NCI-H1792, fatty acid 5 micromolar
From the text: as §1, §2, §3

LoVo colon cancer cells = test: DIMSCAN cytotoxicity assay, LoVo; type: cell-based, human; details: fatty acid 5 micromolar
From the text: as §1, §4, §5

Compound	effect of fatty acid addition on sphinganine/GT-11 cytotoxicity (CCRF-CEM cells)	effect of fatty acid on fenretinide cytotoxicity [1]	increase of reactive oxygen species (reactive oxygen species)	effect of fatty acid on fenretinide cytotoxicity [2]	effect of fatty acid on fenretinide cytotoxicity [3]	effect of fatty acid on fenretinide cytotoxicity (LoVo colon cancer cells)
CCCCCCCC/C=C\CCCCCCCCCCCC(=O)O [C22:1-fatty acid]	did not impart any additional cytotoxicity					
CCCCCCCCCCCCCCCCCCCCCC(=O)O [C22:0-fatty acid]		increased fenretinide cytotoxicity	not observed	increased fenretinide cytotoxicity	increased fenretinide cytotoxicity	increased fenretinide cytotoxicity
